Test results published in US11161830B2, “4-pyridone compound or salt thereof, and pharmaceutical composition and formulation including same” (priority 2017, dated 2021).
Where two headings read alike, the source gives them in different places.

How the values were obtained:
Format in all cases: cell-based, hepatitis B virus
HBV [1] = test: Test Example 1-1: anti-HBV assay in HepG2.2.15 cells (test solution 200 μL/well); settings: culture supernatant
Procedure: (§1) Using HepG2.2.15 cells (Proc. Natl. Acad. Sci. USA, 84, 1005-1009, 1987) which have an HBV genome introduced into a hepatoblastoma cell line, HepG2, and persistently produce a virus, the anti-HBV activity of the representative compounds was evaluated in the following procedure.
(§2) The following was used as a medium:
(§3) DMEM/F-12, GlutaMAX (manufactured by Invitrogen)+5 μg/mL insulin (manufactured by Wako)+1% penicillin/streptomycin (manufactured by Sigma)+10 mmol/L HEPES (manufactured by Sigma)+50 μmol/L hydrocortisone (manufactured by Sigma)+10% FBS
(§4) A mixture of a test compound with dimethyl sulfoxide (DMSO) was further added to the medium to obtain a final concentration of DMSO of 0.25% (v/v), and thus, test solutions containing the test compound at various concentrations were prepared. In addition, a test solution obtained by adding DMSO alone to the medium to obtain a final concentration of 0.25% (v/v) was prepared as a control without addition of a drug.
(§5) (1) The HepG2.2.15 cells were suspended in the medium to prepare a. HepG2.2.15 cell suspension at 4×10^5 cells/mL. The suspension was seeded in a 96-well microtiter plate (100 μL/well) and the plate was incubated in a 5% CO2 incubator at 37° C. for 2 days.
(§6) (2) The culture supernatant was removed and the cells were washed twice with PBS (−) (100 μL/well).
(§7) (3) The test solution (200 μL/well) was added to the plate of (2) and the plate was incubated in a 5% CO2 incubator at 37° C. for 4 days.
(§8) (4) The culture supernatant was removed, the test solution (200 μL/well) was added again to the plate, and the plate was incubated in a 5% CO2 incubator at 37° C. for 3 days.
(§9) (5) The culture supernatant was collected and treated with a mixture of Buffer AL (manufactured by QIAGEN) and Proteinase K (manufactured by Invitrogen). The amount of DNA of HBV (HBV-DNA) in the obtained solution was absolutely quantified by a real-time PCR method. In addition, HBsAg (hepatitis B surface antigen) in the culture supernatant was absolutely quantified by chemiluminescent enzyme immunoassay using Lumipulse (registered trademark) HBsAg-HQ (manufactured by Fujirebio Inc.). The relative viral load (%) of a well with the compound added to a well without the compound added was calculated. An IC50 of the compound was calculated using a FORECAST function (linear regression method) of Microsoft Office Excel 2007 by plotting the logarithm of the concentration against the relative viral load as a real number.
(§10) The IC50 of HBV-DNA was defined as a concentration (or a logarithm dilution of the culture supernatant) of the compound, in which the amount of HBV-DNA is reduced by 50% as compared a control without the compound added.
(§11) In addition, the IC50 of HBsAg was defined as a concentration (or a logarithm dilution of the culture supernatant) of the compound, in which the amount of HBsAg is reduced by 50% as compared a control without the compound added.

HBV (genotype AeUS) = test: Test Example 2-1: anti-HBV assay in PXB-cells (fresh human hepatocytes); settings: PXB-cells infected with HBV genotype AeUS, culture supernatant on day 32 post infection
Procedure: Using fresh human hepatocytes (PXB-cells, manufactured by PhenixBio Co., Ltd.) collected from a PXB mouse (a chimeric mouse with human hepatocytes), the anti-HBV activity of the representative compounds was evaluated in the following procedure.
as §2
DMEM (manufactured by Sigma)+0.25 μg/mL insulin (manufactured by Wako)+1% penicillin/streptomycin. (manufactured by Sigma)+20 mmol/L HEPES (manufactured by Sigma)+15 μg/mL L-proline (manufactured by Sigma)+50 nmol/L dexamethasone (manufactured by Sigma)+5 ng/mL EGF (manufactured by Peprotech)+0.1 mmol/L ascorbic acid 2-phosphate (manufactured by Wako)+10% FBS+2% DMSO
Each of the test compounds) was further added to the medium to prepare a test solution containing each of the test compounds at various concentrations.
(1) PXB-cells seeded at a seeding density of 2.1×10^5 cells/cm^2 in a 96-well microliter plate were incubated in a 5% CO2 incubator at 37° C. until a day on which the cells were infected.
(2) HBV (genotype AeUS) derived from a PXB mouse serum was suspended in the medium containing 4% PEG-8000, and added to the plate of (1) at about 10 copies/cell such that the PXB cells were infected (100 μL/well), and the plate was incubated in a 5% CO2 incubator at 37° C. for 1 day.
(3) The culture supernatant on day 1 post infection was removed and the cells were washed three times with DMEM containing 10% FBS and 1% penicillin/streptomycin. Then, the medium was added to the plate (100 μL/well) and the plate was incubated in a 5% CO2 incubator at 37° C. for 1 day.
(4) The culture supernatant on day 2 post infection was removed and the cells were washed three times with DMEM containing 10% FBS and 1% penicillin/streptomycin. Then, the medium was added to the plate (100 μL/well) and the plate was incubated in a 5% CO2 incubator at 37° C. for 5 days.
(5) The culture supernatant on day 7 post infection was removed, the medium was added to the plate (100 μL/well), and the plate was incubated in a 5% CO2 incubator at 37° C. for 5 days.
(6) The culture supernatant on day 12 post infection was removed, the medium was added to the plate (100 μL/well), and the plate was incubated in a 5% CO2 incubator at 37° C. for 5 days.
(§12) (7) The culture supernatant on day 17 post infection was removed, the test solution was added to the plate (100 μL/well), and the plate was incubated in a 5% CO2 incubator at 37° C. for 5 days. As a control without the compound added, the medium was added to the plate (100 μL/well) and the plate was incubated in a 5% CO2 incubator at 37° C. for 5 days.
as §12, with “(8)” for “(7)”, “22” for “17”
as §12, with “(9)” for “(7)”, “27” for “17”
(10) The culture supernatant on day 32 post infection was collected.
(11) The collected culture supernatant on day 32 post infection was purified with a QIAamp (registered trademark) DNA Blood Mini Kit (manufactured by QIAGEN). The amount of HBV-DNA in the obtained solution was absolutely quantified by a real-time PCR method. In addition, the amount of HBsAg in the culture supernatant was absolutely quantified by chemiluminescent enzyme immunoassay using Lumipulse (registered trademark) HBsAg-HQ (manufactured by Fujirebio Inc.). A relative viral load (%) with respect to a control without the compound added was each calculated. […]

HBV [2] = test: Test Example 1-2: anti-HBV assay in HepG2.2.15 cells (test solution 100 μL/well); settings: Hepatitis B virus, culture supernatant
Procedure: as §1, §2, §3, §4, §5, §6, §7, §8, §9, §10, §11
The test was performed by the same method as in Test Example 1-1 except that the amounts of the test solutions of (3) and (4) of Test Example 1-1 was changed to 100 μL/well.

[3] = Hepatitis B virus, read-out: IC50 HBV-DNA
[4] = Hepatitis B virus, read-out: IC50 HBsAg
[5] = Hepatitis B virus, Hepatocyte, read-out: IC50 HBV-DNA
[6] = Hepatitis B virus, Hepatocyte, read-out: IC50 HBsAg

| Compound | IC50 (HBV [1]; [3]) [µM] | IC50 (HBV [1]; [4]) [µM] | IC50 (HBV (genotype AeUS); [5]) [µM] | IC50 (HBV (genotype AeUS); [6]) [µM] | IC50 (HBV [2]; read-out: IC50 HBV-DNA) [µM] | IC50 (HBV [2]; read-out: IC50 HBsAg) [µM] | IC50 (HBV [1]; read-out: IC50 HBV-DNA) [µM] | IC50 (HBV [1]; read-out: IC50 HBsAg) [µM] | IC50 (HBV (genotype AeUS); read-out: IC50 HBV-DNA) [µM] | IC50 (HBV (genotype AeUS); read-out: IC50 HBsAg) [µM] |
| --- | --- | --- | --- | --- | --- | --- | --- | --- | --- | --- |
| COC[C@H]1CCCN1c1nc2ccc(-n3cc(C(=O)O)c(=O)cc3-c3ccc(N4CCCC4)cc3)cc2s1 [Example 3-10, (R)-1-(2-(2-(methoxymethyl)pyrrolidin-1-yl)benzo[d]thiazol-6-yl)-4-oxo-6-(4-(pyrrolidin-1-yl)phenyl)-1,4-dihydropyridine-3-carboxylic acid] | 0.0028 | 0.0013 | 0.015 | 0.039 |  |  |  |  |  |  |
| CO[C@@H]1CCN(c2ccc(-c3cc(=O)c(C(=O)O)cn3-c3ccc4nc(N5CC(OCC6CCCO6)C5)sc4c3)cc2F)C1 (stereo partly drawn) [Example 23-3, 6-(3-fluoro-4-((R)-3-methoxypyrrolidin-1-yl)phenyl)-4-oxo-1-(2-(3-((tetrahydrofuran-2-yl)methoxy)azetidin-1-yl)benzo[d]thiazol-6-yl)-1,4-dihydropyridine-3-carboxylic acid] |  |  |  |  | 0.00061 | 0.0017 |  |  |  |  |
| 1-(2-morpholinebenzo[d]thiazol-6-yl)-4-oxo-6-(4-(pyrrolidin-1-yl)phenyl)-1,4-dihydropyridine-3-carboxylic acid [Example 3-4] |  |  |  |  |  |  | 0.0055 | 0.0059 | 0.022 | 0.014 |
| O=C(O)c1cn(-c2ccc3nc(N4CCCC4)sc3c2)c(-c2ccc(N3CCCC3)cc2)cc1=O [Example 3-3, 4-oxo-1-(2-(pyrrolidin-1-yl)benzo[d]thiazol-6-yl)-6-(4-(pyrrolidin-1-yl)phenyl)-1,4-dihydropyridine-3-carboxylic acid] | 0.002 | 0.005 | 0.052 | 0.077 |  |  |  |  |  |  |
| O=C(O)c1cn(-c2ccc3ncsc3c2)c(-c2ccc(N3CCCC3)cc2)cc1=O [Example 3-1, 1-(benzo[d]thiazol-6-yl)-4-oxo-6-(4-(pyrrolidin-1-yl)phenyl)-1,4-dihydropyridine-3-carboxylic acid] | 0.027 | 0.021 | 0.23 | 0.54 |  |  |  |  |  |  |
| COCCO[C@@H]1CCN(c2ccc(-c3cc(=O)c(C(=O)O)cn3-c3ccc4nc(C)sc4c3)cc2)C1 [Example 9, (R)-6-(4-(3-(2-Methoxyethoxy)pyrrolidin-1-yl)phenyl)-1-(2-methylbenzo[d]thiazol-6-yl)-4-oxo-1,4-dihydropyridine-3-carboxylic acid] | 0.055 | 0.024 | 0.58 | 0.33 |  |  |  |  |  |  |
| CO[C@@H]1CCN(c2ccc(-c3cc(=O)c(C(=O)O)cn3-c3ccc4nc(N5CCOCC5)sc4c3)cc2Cl)C1 [Example 11, (R)-6-(3-Chloro-4-(3-methoxypyrrolidin-1-yl)phenyl)-1-(2-morpholinobenzo[d]thiazol-6-yl)-4-oxo-,4-dihydropyridine-3-carboxylic acid] | 0.013 | 0.0049 | 0.028 | 0.082 |  |  |  |  |  |  |
| O=C(O)c1cn(-c2ccc3nc(N4CCOCC4)sc3c2)c(-c2ccc(N3CCCC3)c(F)c2)cc1=O [Example 7, 6-(3-Fluoro-4-(pyrrolidin-1-yl)phenyl)-1-(2-morpholinobenzo[d]thiazol-6-yl)-4-oxo-1,4-dihydropyridine-3-carboxylic acid] | 0.0014 | 0.0031 | 0.012 | 0.041 |  |  |  |  |  |  |
| Cc1nc2ccc(-n3cc(C(=O)O)c(=O)cc3-c3ccc(N4CCCC4)cc3)cc2s1 [Example 3-2, 1-(2-methylbenzo[d]thiazol-6-yl)-4-oxo-6-(4-(pyrrolidin-1-yl)phenyl)-1,4-dihydropyridine-3-carboxylic acid] | 0.009 | 0.0031 | 0.47 | 0.15 |  |  |  |  |  |  |
| Cc1nc2ccc(-n3cc(C(=O)O)c(=O)cc3-c3ccc(N4CCCC4)c(Br)c3)cc2s1 [Example 5-1, 6-(3-bromo-4-(pyrrolidin-1-yl)phenyl)-1-(2-methylbenzo[d]thiazol-6-yl)-4-oxo-1,4-dihydropyridine-3-carboxylic acid] | 0.0037 | 0.0064 | 0.2 | 0.15 |  |  |  |  |  |  |
| O=C(O)c1cn(-c2ccc3nc(NCc4ncccn4)sc3c2)c(-c2ccc(N3CCCC3)cc2)cc1=O [Example 3-13, 4-oxo-1-(2-((pyrimidin-2-ylmethyl)amino)benzo[d]thiazol-6-yl)-6-(4-(pyrrolidin-1-yl)phenyl)-1,4-dihydropyridine-3-carboxylic acid] | 0.0039 | 0.0051 | < 0.008 | 0.039 |  |  |  |  |  |  |
| Cc1nc2ccc(-n3cc(C(=O)O)c(=O)cc3-c3ccc(N4CCCC4)c(C#N)c3)cc2s1 [Example 16, 6-(3-Cyano-4-(pyrrolidin-1-yl)phenyl)-1-(2-methylbenzo[d]thiazol-6-yl)-4-oxo-1,4-dihydropyridine-3-carboxylic acid] | 0.018 | 0.015 | 0.47 | 0.19 |  |  |  |  |  |  |
